Structures can show the parent of a compound that is named as a salt. Where two headings read alike, the source gives them in different places. Each block holds one compound with its values, some of them ahead of it.
How the values were obtained:
MMP-1 = biological target: T1, MMP-1 (Homo sapiens, UniProt P03956); assay: MMP-1 inhibition (thiopeptide or fluorescent peptide substrate); format: biochemical; settings: read-out: MMP-1 IC50
T1 sequence (P03956 100-469): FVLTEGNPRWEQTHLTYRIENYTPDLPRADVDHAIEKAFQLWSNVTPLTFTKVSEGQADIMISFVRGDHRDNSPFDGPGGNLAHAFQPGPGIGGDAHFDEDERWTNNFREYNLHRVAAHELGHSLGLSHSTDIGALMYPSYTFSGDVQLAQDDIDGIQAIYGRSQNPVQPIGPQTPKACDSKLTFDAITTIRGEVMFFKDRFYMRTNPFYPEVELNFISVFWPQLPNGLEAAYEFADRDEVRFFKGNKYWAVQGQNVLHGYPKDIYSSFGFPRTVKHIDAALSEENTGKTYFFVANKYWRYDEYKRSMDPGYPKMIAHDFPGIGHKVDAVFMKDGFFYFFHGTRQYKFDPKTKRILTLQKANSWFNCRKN

[1] = biological target: TNF-α converting enzyme (TACE) (Homo sapiens, UniProt P78536); assay: TACE inhibition (fluorescent peptidyl substrate); format: biochemical; settings: read-out: TACE IC50
Chain of TNF-α converting enzyme (TACE) (P78536 215-824, species assumed): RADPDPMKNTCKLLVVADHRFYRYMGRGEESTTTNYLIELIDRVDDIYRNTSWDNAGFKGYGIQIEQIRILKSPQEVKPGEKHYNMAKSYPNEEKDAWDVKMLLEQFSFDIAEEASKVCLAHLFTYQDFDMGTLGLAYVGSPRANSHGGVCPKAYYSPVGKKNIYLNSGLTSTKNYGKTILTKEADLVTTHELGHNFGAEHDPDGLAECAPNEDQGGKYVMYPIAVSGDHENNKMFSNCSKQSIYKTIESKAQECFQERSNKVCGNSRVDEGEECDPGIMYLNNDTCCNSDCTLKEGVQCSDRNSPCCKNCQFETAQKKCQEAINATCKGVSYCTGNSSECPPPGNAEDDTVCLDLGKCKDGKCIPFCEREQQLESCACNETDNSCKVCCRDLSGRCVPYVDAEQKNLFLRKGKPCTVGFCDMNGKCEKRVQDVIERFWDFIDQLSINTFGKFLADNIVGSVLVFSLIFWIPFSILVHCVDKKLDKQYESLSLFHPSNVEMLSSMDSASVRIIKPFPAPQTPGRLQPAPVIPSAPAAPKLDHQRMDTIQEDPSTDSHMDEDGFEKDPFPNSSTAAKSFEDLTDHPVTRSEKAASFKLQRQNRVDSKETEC

MMP-13 = MMP-13 (Homo sapiens, UniProt P45452); assay: MMP-13 inhibition (thiopeptide or fluorescent peptide substrate); format: biochemical; settings: read-out: MMP-13 IC50
MMP-9 = MMP-9 (Homo sapiens, UniProt P14780); assay: MMP-9 inhibition (thiopeptide or fluorescent peptide substrate); format: biochemical; settings: read-out: MMP-9 IC50
Chain of MMP-9 (P14780 94-707): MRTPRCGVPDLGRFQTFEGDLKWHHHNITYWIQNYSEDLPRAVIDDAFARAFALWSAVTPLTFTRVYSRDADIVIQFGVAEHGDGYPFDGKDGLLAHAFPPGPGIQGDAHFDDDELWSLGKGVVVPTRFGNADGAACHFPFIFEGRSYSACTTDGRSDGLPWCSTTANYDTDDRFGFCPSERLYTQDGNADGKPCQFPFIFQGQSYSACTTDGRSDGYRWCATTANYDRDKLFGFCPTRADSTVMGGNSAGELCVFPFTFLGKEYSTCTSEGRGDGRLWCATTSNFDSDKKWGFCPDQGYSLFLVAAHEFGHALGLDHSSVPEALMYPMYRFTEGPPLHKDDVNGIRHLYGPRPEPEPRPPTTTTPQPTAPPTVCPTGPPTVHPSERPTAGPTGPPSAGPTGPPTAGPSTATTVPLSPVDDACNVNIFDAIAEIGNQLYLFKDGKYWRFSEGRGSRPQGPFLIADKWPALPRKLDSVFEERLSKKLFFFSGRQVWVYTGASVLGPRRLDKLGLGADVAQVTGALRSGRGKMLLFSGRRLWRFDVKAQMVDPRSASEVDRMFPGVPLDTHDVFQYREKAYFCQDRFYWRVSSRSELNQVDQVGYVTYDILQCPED

Compound: CC#CCOc1ccc(S(=O)(=O)N(C)C(C(=O)NO)C(C)(C)SCCN2CCOCC2)cc1 (stereo not shown) (as salt: hydrochloride) [Example 140, 2-({[4-(2-Butynyloxy)phenyl]sulfonyl)(methyl)amino]-N-hydroxy-3 Methyl-3-[(2(4-morpholinylethyl)sulfanyl]-butanamide Hydrochloride]
melting point: 50 °C (dec.)

Compound: CC#CCOc1ccc(S(=O)(=O)N(C)C(C(=O)NO)C(C)(C)SCCn2ccnc2)cc1 (stereo not shown) (as salt: hydrochloride) [Example 144, 2-({[4-(2-Butynyloxy)phenyl]sulfonyl)(methyl)amino]-N-hydroxy-3 Methyl-3-{[2-(1H-imidazol-1-yl)ethyl]sulfanyl}butanamide]
melting point: 67 to 70 °C

Compound: CC#CCOc1ccc(S(=O)(=O)NC(C(=O)NO)c2ccc(OCCN3CCCC3)cc2)cc1 (stereo not shown) (as salt: hydrochloride) [Example 205, 2-({[4-(2-Butynyloxy)phenyl]sulfonyl}amino)-N-hydroxy-2-{4-[2-(1-pyrrolidinyl)ethoxy]phenyl}acetamide]
melting point: 70 °C

Compound: CC#CCOc1ccc(S(=O)(=O)N2CCSC3(CCN(Cc4ccccc4)CC3)C2C(=O)NO)cc1 (stereo not shown) (as salt: hydrochloride) [Example 241, 9-Benzyl-4-{[4-(2-butynyloxy)phenyl]sulfonyl}-N-hydroxy-1-thia-4,9-diazaspiro[5.5]undecane-5-carboxamide]
melting point: 151 to 153 °C

Compound: CC#CCOc1ccc(S(=O)(=O)NC(C(=O)NO)C(C)(C)SCC(=O)O)cc1 (stereo not shown) (as salt: sodium) [Example 166, tert-Butyl {[2-({[4-2-Butynyloxy)phenyl]sulfonyl}amino)-3-(hydroxyamino)-1,1-dimethyl-3-oxopropyl]sulfanyl Acetic Acid, Sodium Salt]
melting point: 75 °C (dec.)

Compound: CC#CCOc1ccc(S(=O)(=O)N(C)C(C(=O)NO)C(C)(C)SCCN2CCCC2)cc1 (stereo not shown) [Example 143, 2-({[4-(2-Butynyloxy)phenyl]sulfonyl)(methyl)amino]-N-hydroxy-3 Methyl-3-{[2(1-pyrrolidinyl)ethyl]sulfanyl}butanamide]
melting point: 55 to 57 °C

Compound: CC#CCOc1ccc(S(=O)(=O)N(C)C(C(=O)NO)C(C)(C)SCC(C)N(CC)CC)cc1 (stereo not shown) [Example 148, 2-({[4-(2-Butynyloxy)phenyl]sulfonyl)(methyl)amino]-N-hydroxy-3 Methyl-3-{[2-(diethylamino)propyl]sulfanyl}butanamide]
melting point: 65 to 68 °C

Compound: CC#CCOc1ccc(S(=O)(=O)N(C)C(C(=O)NO)c2ccc(OCCCNC(=O)OCC)cc2)cc1 (stereo not shown) [Example 193, Ethyl 3-{4-[1-[{[4-(2-Butynyloxy)phenyl]sulfonyl}(methyl)amino]-2-(hydroxyamino)-2-oxoethyl]phenoxy}propylcarbamate]
IC50 (MMP-1): ~1 µM
IC50 [1]: 0.061 µM
melting point: 60 to 62 °C
IC50 (MMP-13): 0.0293 µM

Compound: CC#CCOc1ccc(S(=O)(=O)N(C)C(C(=O)NO)c2ccc(OCCCNC(C)=O)cc2)cc1 (stereo not shown) [Example 194]
IC50 (MMP-1): 0.592 µM
IC50 [1]: 0.061 µM
melting point: 88 °C (dec.)
IC50 (MMP-13): 0.015 µM

Compound: CC#CCOc1ccc(S(=O)(=O)N(C)C(C(=O)NO)c2ccc(OCCCNC(=O)OCc3ccccc3)cc2)cc1 (stereo not shown) [Example 196, Benzyl 3-{4-[1-[{[4-(2-Butynyloxy)phenyl]sulfonyl}(methyl)amino]-2-(hydroxyamino)-2-oxoethyl]phenoxy}propylcarbamate]
IC50 [1]: 0.109 µM
melting point: 48 to 50 °C
IC50 (MMP-13): 0.031 µM

Compound: CC#CCOc1ccc(S(=O)(=O)N2CCN(C(=O)c3ccccc3)CCC2C(=O)NO)cc1 (stereo not shown) [Example 289, 1-Benzoyl-4-{[4-(2-butynyloxy)phenyl]sulfonyl}-N-hydroxy-1,4-diazepane-5-carboxamide]
IC50 (MMP-1): 0.113 µM
IC50 (MMP-9): 0.012 µM
IC50 [1]: 0.01 µM
IC50 (MMP-13): 0.004 µM

Other lines, results leading:

IC50 ([1]; Table 9): 0.869 µM
melting point: 195 to 198 °C
Compound: CC#CCOc1ccc(S(=O)(=O)N2CCSC3(CCN(C)CC3)C2C(=O)NO)cc1 (stereo not shown) [Example 242, 9-Methyl-4-{[4-(2-butynyloxy)phenyl]sulfonyl}-N-hydroxy-1-thia-4,9-diazaspiro[5.5]undecane-5-carboxamide]

IC50 (MMP-1; Table 10): 0.053 µM
IC50 (MMP-9; Table 10): 0.108 µM
IC50 ([1]; Table 10): 0.16 µM
IC50 (MMP-13; Table 10): 0.0025 µM
Compound: CC1(C)SCCN(S(=O)(=O)c2ccc(OCC#CCOCc3ccccc3)cc2)C1C(=O)NO (stereo not shown) [Example 247, 4-[(4-{[4-(Benzyloxy)-2-butynyl]oxy}phenyl)sulfonyl]-N-hydroxy-2,2-dimethyl-3-thiomorpholine Carboxamide]

IC50 (MMP-1; Table 10): 0.098 µM
IC50 (MMP-9; Table 10): 0.048 µM
IC50 ([1]; Table 10): 0.092 µM
IC50 (MMP-13; Table 10): 0.0073 µM
Compound: CC1(C)SCCN(S(=O)(=O)c2ccc(OCC#CCCCOC3CCCCO3)cc2)C1C(=O)NO (stereo not shown) [Example 248, N-Hydroxy-2,2-dimethyl-4-[(4-{[6-(tetrahydro-2H-pyran-2-yloxy)-2-hexynyl]oxy}phenyl)sulfonyl]-3-thiomorpholine Carboxamide]

IC50 (MMP-1; Table 10): 0.159 µM
IC50 (MMP-9; Table 10): 0.377 µM
IC50 ([1]; Table 10): 0.04 µM
IC50 (MMP-13; Table 10): 0.086 µM
Compound: CC1(C)SCCN(S(=O)(=O)c2ccc(OCC#CCCCO)cc2)C1C(=O)NO (stereo not shown) [Example 249, N-Hydroxy-4-({4-[(6-hydroxy-2-hexynyl)oxy]phenyl}sulfonyl)-2,2-dimethyl-3-thiomorpholine Carboxamide]

IC50 (MMP-1; Table 10): 0.042 µM
IC50 (MMP-9; Table 10): 0.16 µM
IC50 ([1]; Table 10): 0.153 µM
IC50 (MMP-13; Table 10): 0.0017 µM
Compound: CC(C)(C)OC(=O)NCCCC#CCOc1ccc(S(=O)(=O)N2CCSC(C)(C)[C@@H]2C(=O)NO)cc1 [Example 250, tert-Butyl 6-[4-({(3S)-3-[(Hydroxyamino)carbonyl]-2,2-dimethylthiomorpholinyl}sulfonyl)phenoxy]-4-hexynylcarbamate]

IC50 (MMP-1; Table 10): 0.226 µM
IC50 (MMP-9; Table 10): 0.028 µM
IC50 ([1]; Table 10): 0.028 µM
IC50 (MMP-13; Table 10): 0.0087 µM
Compound: CC1(C)SCCN(S(=O)(=O)c2ccc(OCC#CCCCN)cc2)[C@H]1C(=O)NO [Example 251, (3S)-4-({4-[(6-Amino-2-hexynyl)oxy]phenyl}sulfonyl)-N-hydroxy-2,2-dimethyl-3-thiomorpholine Carboxamide]

IC50 (MMP-1; Table 9): 0.024 µM
IC50 (MMP-9; Table 9): 0.064 µM
IC50 ([1]; Table 9): 0.024 µM
IC50 (MMP-13; Table 9): 0.023 µM
Compound: CC#CCOc1ccc(S(=O)(=O)N2CCS(=O)(=O)C(C)(C)[C@@H]2C(=O)NO)cc1 [Example 257, (3S)-4-{[4-(2-Butynyloxy)phenyl]sulfonyl}-N-hydroxy-2,2-dimethyl-3-thiomorpholine Carboxamide 1,1-Dioxide]

IC50 (MMP-1; Table 10): 0.026 µM
IC50 (MMP-9; Table 10): 0.031 µM
IC50 ([1]; Table 10): 0.074 µM
IC50 (MMP-13; Table 10): 0.004 µM
Compound: CC(C)(C)OC(=O)NCC#CCOc1ccc(S(=O)(=O)N2CCSC(C)(C)C2C(=O)NO)cc1 (stereo not shown) [Example 266, tert-Butyl 4-[4-({3-[(Hydroxyamino)carbonyl]-2,2-dimethyl-4-thiomorpholinyl}sulfonyl)phenoxy]-2-butynylcarbamate]

IC50 (MMP-1; Table 10): 0.364 µM
IC50 (MMP-9; Table 10): 1.27 µM
IC50 ([1]; Table 10): 0.112 µM
IC50 (MMP-13; Table 10): 0.037 µM
Compound: CN(CC#CCOc1ccc(S(=O)(=O)N2CCSC(C)(C)C2C(=O)NO)cc1)C(=O)OC(C)(C)C (stereo not shown) [Example 267, tert-Butyl 4-[4-({3-[(Hydroxyamino)carbonyl]-2,2-dimethyl-4-thiomorpholinyl}sulfonyl)phenoxy]-2-butynyl(methyl)carbamate]

IC50 (MMP-1; Table 11): 0.0078 µM
IC50 (MMP-9; Table 11): 0.166 µM
IC50 ([1]; Table 11): 0.024 µM
IC50 (MMP-13; Table 11): 0.0087 µM
Compound: CC#CCOc1ccc(S(=O)(=O)N2C[C@H](C)SC(C)(C)[C@@H]2C(=O)NO)cc1 [Example 272, (3S,6S)-4-{[4-(2-Butynyloxy)phenyl]sulfonyl}-N-hydroxy-2,2,6-trimethyl-3-thiomorpholinecarboxamide]

IC50 (MMP-1; Table 11): 0.03 µM
IC50 (MMP-9; Table 11): 0.022 µM
IC50 ([1]; Table 11): 0.128 µM
IC50 (MMP-13; Table 11): 0.016 µM
Compound: CC#CCOc1ccc(S(=O)(=O)N2C[C@@H](CN)SC(C)(C)[C@@H]2C(=O)NO)cc1 [Example 275, (3S,6R)-trans-6-(Aminomethyl)-4-{[4-(2-butynyloxy)phenyl]sulfonyl}-N-hydroxy-2,2-dimethyl-3-thiomorpholinecarboxamide Hydrochloride]

IC50 (MMP-1; Table 11): 0.021 µM
IC50 (MMP-9; Table 11): 0.084 µM
IC50 ([1]; Table 11): 0.057 µM
IC50 (MMP-13; Table 11): 0.024 µM
Compound: CC#CCOc1ccc(S(=O)(=O)N2C[C@H](CN)SC(C)(C)[C@@H]2C(=O)NO)cc1 [Example 276, (3S,6S)-cis-6-(Aminomethyl)-4-{[4-(2-butynyloxy)phenyl]sulfonyl}-N-hydroxy-2,2-dimethyl-3-thiomorpholinecarboxamide Hydrochloride]

IC50 (MMP-1): 3.04 µM
IC50 (MMP-9): 1.79 µM
IC50 [1]: 0.02 µM
IC50 (MMP-13): 0.852 µM
Compound: CC#CCOc1ccc(S(=O)(=O)N2CSC(C)(C)[C@@H]2C(=O)NO)cc1 [Example 286, (4S)-3-{[4-(2-Butynyloxy)phenyl]sulfonyl}-N-hydroxy-5,5-dimethyl-1,3-thiazolidine-4-carboxamide]

melting point: 95 to 98 °C
Compound: CC#CCOc1ccc(S(=O)(=O)N2CCSCCC2C(=O)NO)cc1 (stereo not shown) [Example 294, 4-{[4-(2-Butynyloxy)phenyl]sulfonyl}-N-hydroxy-1,4-thiazepine-5-carboxamide]

— US6716833B2, “Acetylenic α-amino acid-based sulfonamide hydroxamic acid tace inhibitors” (priority 1999, dated 2004)
